Patent US9738634B2, “Heterocyclic amide compound and herbicide” (SYNGENTA PARTICIPATIONS AG, priority 2013, dated 2017)

What was measured:
Format in all cases: in vivo
[1] = tested on: barnyard grass; test: Test Example 1: weedkilling efficacy, preemergent weed treatment in the submerged state; A: barnyard grass
Summary of the method: (§1)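 Emulsion diluted with water to the specified per-hectare dosage is applied onto flood water (4 cm) over alluvial soil on the sowing day, with barnyard grass, bulrush and pondweed seeded and rice (2.5-leaf) transplanted; plants grow at 25–30 °C and are rated at 3 weeks.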

[2] = tested on: bulrush; test: Test Example 1: weedkilling efficacy, preemergent weed treatment in the submerged state; B: bulrush
Summary of the method: as §1

[3] = tested on: oval-leafed pondweed; test: Test Example 1: weedkilling efficacy, preemergent weed treatment in the submerged state; C: oval-leafed pondweed
Summary of the method: as §1

[4] = tested on: transplanted rice; test: Test Example 1: preemergent weed treatment in the submerged state, effect on crop; a: transplanted rice
Summary of the method: as §1

[5] = tested on: barnyard grass; test: Test Example 2: weedkilling efficacy, growth period weed treatment in the submerged state; A: barnyard grass
Summary of the method: (§2)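 First, alluvial soil in pots is flooded to 4 cm and mixed seed is sown. Next, plants grow in a greenhouse at 25 to 30° C until the 1-2 leaf stage. Then diluted emulsion is applied onto the water surface at the given g/ha rate, and injury is assessed after 3 weeks.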

[6] = tested on: bulrush; test: Test Example 2: weedkilling efficacy, growth period weed treatment in the submerged state; B: bulrush
Summary of the method: as §2

[7] = tested on: oval-leafed pondweed; test: Test Example 2: weedkilling efficacy, growth period weed treatment in the submerged state; C: oval-leafed pondweed
Summary of the method: as §2

[8] = tested on: crabgrass; test: Test Example 3: weedkilling efficacy through soil treatment; D: crabgrass; conditions: soil treatment, treatment dosage 315 g/ha
Summary of the method: (§3)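 Crop and weed responses were judged three weeks after a uniform surface spray of the water-diluted emulsion at the given g/ha rate. Seeds sat beneath about 1.5 cm of sterilized diluvial soil, and boxes stood in a greenhouse at 25 to 30° C.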

[9] = tested on: green foxtail; test: Test Example 3: weedkilling efficacy through soil treatment; E: green foxtail; conditions: soil treatment, treatment dosage 315 g/ha
Summary of the method: as §3

[10] = tested on: barnyard grass; test: Test Example 3: weedkilling efficacy through soil treatment; F: barnyard grass; conditions: soil treatment, treatment dosage 315 g/ha
Summary of the method: as §3

[11] = tested on: wild oat; test: Test Example 3: weedkilling efficacy through soil treatment; G: wild oat; conditions: soil treatment, treatment dosage 315 g/ha
Summary of the method: as §3

[12] = tested on: black-grass; test: Test Example 3: weedkilling efficacy through soil treatment; H: black-grass; conditions: soil treatment, treatment dosage 315 g/ha
Summary of the method: as §3

[13] = tested on: Italian ryegrass; test: Test Example 3: weedkilling efficacy through soil treatment; I: Italian ryegrass; conditions: soil treatment, treatment dosage 315 g/ha
Summary of the method: as §3

[14] = tested on: common wind-grass; test: Test Example 3: weedkilling efficacy through soil treatment; J: common wind-grass; conditions: soil treatment, treatment dosage 315 g/ha
Summary of the method: as §3

[15] = tested on: Indian mallow; test: Test Example 3: weedkilling efficacy through soil treatment; K: Indian mallow; conditions: soil treatment, treatment dosage 315 g/ha
Summary of the method: as §3

[16] = tested on: redroot pigweed; test: Test Example 3: weedkilling efficacy through soil treatment; L: redroot pigweed; conditions: soil treatment, treatment dosage 315 g/ha
Summary of the method: as §3

[17] = tested on: chickweed; test: Test Example 3: weedkilling efficacy through soil treatment; N: chickweed; conditions: soil treatment, treatment dosage 315 g/ha
Summary of the method: as §3

[18] = tested on: catchweed; test: Test Example 3: weedkilling efficacy through soil treatment; O: catchweed; conditions: soil treatment, treatment dosage 315 g/ha
Summary of the method: as §3

[19] = tested on: birds-eye speedwell; test: Test Example 3: weedkilling efficacy through soil treatment; p: birds-eye speedwell; conditions: soil treatment, treatment dosage 315 g/ha
Summary of the method: as §3

[20] = tested on: directly sown rice; test: Test Example 3: soil treatment, effect on crop; b: directly sown rice; conditions: soil treatment, treatment dosage 315 g/ha
Summary of the method: as §3

[21] = tested on: corn; test: Test Example 3: soil treatment, effect on crop; c: corn; conditions: soil treatment, treatment dosage 315 g/ha
Summary of the method: as §3

[22] = tested on: soybean; test: Test Example 3: soil treatment, effect on crop; d: soybean; conditions: soil treatment, treatment dosage 315 g/ha
Summary of the method: as §3

[23] = tested on: wheat; test: Test Example 3: soil treatment, effect on crop; e: wheat; conditions: soil treatment, treatment dosage 315 g/ha
Summary of the method: as §3

[24] = tested on: beet; test: Test Example 3: soil treatment, effect on crop; f: beet; conditions: soil treatment, treatment dosage 315 g/ha
Summary of the method: as §3

[25] = tested on: rapeseed; test: Test Example 3: soil treatment, effect on crop; g: rapeseed; conditions: soil treatment, treatment dosage 315 g/ha
Summary of the method: as §3

| Compound | D: crabgrass, weedkilling efficacy grade [8] | E: green foxtail, weedkilling efficacy grade [9] | F: barnyard grass, weedkilling efficacy grade [10] | G: wild oat, weedkilling efficacy grade [11] | H: black-grass, weedkilling efficacy grade [12] | I: Italian ryegrass, weedkilling efficacy grade [13] | J: common wind-grass, weedkilling efficacy grade [14] | K: Indian mallow, weedkilling efficacy grade [15] | L: redroot pigweed, weedkilling efficacy grade [16] | N: chickweed, weedkilling efficacy grade [17] | O: catchweed, weedkilling efficacy grade [18] | P: birds-eye speedwell, weedkilling efficacy grade [19] | b: directly sown rice, effect on crop grade [20] | c: corn, effect on crop grade [21] | d: soybean, effect on crop grade [22] | e: wheat, effect on crop grade [23] | f: beet, effect on crop grade [24] | g: rapeseed, effect on crop grade [25] | A: barnyard grass, weed kill grade ([1]; treatment dosage 315 g/ha) | B: bulrush, weed kill grade ([2]; treatment dosage 315 g/ha) | further results |
| --- | --- | --- | --- | --- | --- | --- | --- | --- | --- | --- | --- | --- | --- | --- | --- | --- | --- | --- | --- | --- | --- |
| CC(C)(C(=O)Nc1cc(F)cc(F)n1)N1COCN(c2ccccc2)C1=O [A-2-13] | 5 (weed kill ratio 90% or more, (practically complete withering)) | 5 (weed kill ratio 90% or more, (practically complete withering)) | 5 (weed kill ratio 90% or more, (practically complete withering)) | 5 (weed kill ratio 90% or more, (practically complete withering)) | 5 (weed kill ratio 90% or more, (practically complete withering)) | 5 (weed kill ratio 90% or more, (practically complete withering)) | 5 (weed kill ratio 90% or more, (practically complete withering)) | 5 (weed kill ratio 90% or more, (practically complete withering)) | 5 (weed kill ratio 90% or more, (practically complete withering)) | 5 (weed kill ratio 90% or more, (practically complete withering)) | 5 (weed kill ratio 90% or more, (practically complete withering)) | 5 (weed kill ratio 90% or more, (practically complete withering)) | 5 (weed kill ratio 90% or more, (practically complete withering)) | 4 (weed kill ratio 70% or more, less than 90%) | 3 (weed kill ratio 40% or more, less than 70%) | 5 (weed kill ratio 90% or more, (practically complete withering)) | 4 (weed kill ratio 70% or more, less than 90%) | 5 (weed kill ratio 90% or more, (practically complete withering)) | – | – | A: barnyard grass, weed kill grade ([1]; treatment dosage 252 g/ha): 5 (weed kill ratio 90% or more, (practically complete withering)); B: bulrush, weed kill grade ([2]; treatment dosage 252 g/ha): 5 (weed kill ratio 90% or more, (practically complete withering)); C: oval-leafed pondweed, weed kill grade ([3]; treatment dosage 252 g/ha): 5 (weed kill ratio 90% or more, (practically complete withering)); a: transplanted rice, effect on crop grade ([4]; treatment dosage 252 g/ha): 3 (weed kill ratio 40% or more, less than 70%); A (barnyard grass) weedkilling efficacy grade ([5]; treatment dosage 252 g/ha): 5 (weed kill ratio 90% or more, (practically complete withering)); B (bulrush) weedkilling efficacy grade ([6]; treatment dosage 252 g/ha): 5 (weed kill ratio 90% or more, (practically complete withering)); C (oval-leafed pondweed) weedkilling efficacy grade ([7]; treatment dosage 252 g/ha): 5 (weed kill ratio 90% or more, (practically complete withering)) |
| COc1cc(Cl)nc(NC(=O)C(C)(C)N2COCN(c3ccccc3)C2=O)c1 [A-2-33] | 5 (weed kill ratio 90% or more, (practically complete withering)) | 5 (weed kill ratio 90% or more, (practically complete withering)) | 4 (weed kill ratio 70% or more, less than 90%) | 4 (weed kill ratio 70% or more, less than 90%) | 5 (weed kill ratio 90% or more, (practically complete withering)) | 5 (weed kill ratio 90% or more, (practically complete withering)) | 5 (weed kill ratio 90% or more, (practically complete withering)) | 0 (weed kill ratio 5% or less (practically no effect)) | 2 (weed kill ratio 20% or more, less than 40%) | 4 (weed kill ratio 70% or more, less than 90%) | 5 (weed kill ratio 90% or more, (practically complete withering)) | 5 (weed kill ratio 90% or more, (practically complete withering)) | 3 (weed kill ratio 40% or more, less than 70%) | 0 (weed kill ratio 5% or less (practically no effect)) | 0 (weed kill ratio 5% or less (practically no effect)) | 0 (weed kill ratio 5% or less (practically no effect)) | 1 (weed kill ratio 5% or more, less than 20%) | 3 (weed kill ratio 40% or more, less than 70%) | 5 (weed kill ratio 90% or more, (practically complete withering)) | 5 (weed kill ratio 90% or more, (practically complete withering)) | C: oval-leafed pondweed, weed kill grade ([3]; treatment dosage 315 g/ha): 5 (weed kill ratio 90% or more, (practically complete withering)); a: transplanted rice, effect on crop grade ([4]; treatment dosage 315 g/ha): 4 (weed kill ratio 70% or more, less than 90%); A (barnyard grass) weedkilling efficacy grade ([5]; treatment dosage 315 g/ha): 5 (weed kill ratio 90% or more, (practically complete withering)); B (bulrush) weedkilling efficacy grade ([6]; treatment dosage 315 g/ha): 5 (weed kill ratio 90% or more, (practically complete withering)); C (oval-leafed pondweed) weedkilling efficacy grade ([7]; treatment dosage 315 g/ha): 5 (weed kill ratio 90% or more, (practically complete withering)) |
| CC(C)(C(=O)Nc1cccc(CF)n1)N1COCN(c2ccccc2)C1=O [A-2-39] | 5 (weed kill ratio 90% or more, (practically complete withering)) | 5 (weed kill ratio 90% or more, (practically complete withering)) | 5 (weed kill ratio 90% or more, (practically complete withering)) | 4 (weed kill ratio 70% or more, less than 90%) | 5 (weed kill ratio 90% or more, (practically complete withering)) | 5 (weed kill ratio 90% or more, (practically complete withering)) | 5 (weed kill ratio 90% or more, (practically complete withering)) | 0 (weed kill ratio 5% or less (practically no effect)) | 0 (weed kill ratio 5% or less (practically no effect)) | 2 (weed kill ratio 20% or more, less than 40%) | 5 (weed kill ratio 90% or more, (practically complete withering)) | 5 (weed kill ratio 90% or more, (practically complete withering)) | 4 (weed kill ratio 70% or more, less than 90%) | 0 (weed kill ratio 5% or less (practically no effect)) | 0 (weed kill ratio 5% or less (practically no effect)) | 1 (weed kill ratio 5% or more, less than 20%) | 3 (weed kill ratio 40% or more, less than 70%) | 2 (weed kill ratio 20% or more, less than 40%) | 5 (weed kill ratio 90% or more, (practically complete withering)) | 5 (weed kill ratio 90% or more, (practically complete withering)) | C: oval-leafed pondweed, weed kill grade ([3]; treatment dosage 315 g/ha): 5 (weed kill ratio 90% or more, (practically complete withering)); a: transplanted rice, effect on crop grade ([4]; treatment dosage 315 g/ha): 1 (weed kill ratio 5% or more, less than 20%); A (barnyard grass) weedkilling efficacy grade ([5]; treatment dosage 315 g/ha): 4 (weed kill ratio 70% or more, less than 90%); B (bulrush) weedkilling efficacy grade ([6]; treatment dosage 315 g/ha): 5 (weed kill ratio 90% or more, (practically complete withering)); C (oval-leafed pondweed) weedkilling efficacy grade ([7]; treatment dosage 315 g/ha): 4 (weed kill ratio 70% or more, less than 90%) |
